From ChEMBL document CHEMBL1201862, “PubChem BioAssay data set” (2004)
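Exposure lasted 48 hours, with cells grown in 96-well plates and compounds tested at five concentrations. At the GI50, growth is halved.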 Active and inactive are the calls of the source. Cut-off read from the data, not from the text of the source: active = GI50 up to about 1.1 µM and inactive = higher.

Columns and labels:
Assay in all cases: inhibition of tumour cell growth, NCI panel, 48 h
OVCAR-8 = tested on: OVCAR-8
LOX IMVI = tested on: LOX IMVI
HL-60 = tested on: HL-60
SN12C = tested on: SN12C
IGROV-1 = tested on: IGROV-1
HOP-92 = tested on: HOP-92
HOP-62 = tested on: HOP-62
UO-31 = tested on: UO-31
OVCAR-4 = tested on: OVCAR-4
RXF 393 = tested on: RXF 393
M14 = tested on: M14
HCT-15 = tested on: HCT-15
HCC 2998 = tested on: HCC 2998
EKVX = tested on: EKVX
UACC-62 = tested on: UACC-62
SK-MEL-28 = tested on: SK-MEL-28
NCI-H23 = tested on: NCI-H23
NCI-H226 = tested on: NCI-H226

| Compound | GI50 (OVCAR-8) | GI50 (LOX IMVI) | GI50 (HL-60) | GI50 (SN12C) | GI50 (IGROV-1) | GI50 (HOP-92) | GI50 (HOP-62) | GI50 (UO-31) | GI50 (OVCAR-4) | GI50 (RXF 393) | GI50 (M14) | GI50 (HCT-15) [µM] | GI50 (HCC 2998) | GI50 (EKVX) | GI50 (UACC-62) | GI50 (SK-MEL-28) | GI50 (NCI-H23) | GI50 (NCI-H226) |
| --- | --- | --- | --- | --- | --- | --- | --- | --- | --- | --- | --- | --- | --- | --- | --- | --- | --- | --- |
| CC(=O)OC[C@@H]1[C@H]2CC(=O)O[C@H]2C[C@H]1OC(C)=O | > 100 µM (inactive) | > 100 µM (inactive) | > 100 µM (inactive) | > 100 µM (inactive) | > 100 µM (inactive) | > 100 µM (inactive) | > 100 µM (inactive) | > 100 µM (inactive) | > 100 µM (inactive) | > 100 µM (inactive) | > 100 µM (inactive) | > 100 | > 100 µM (inactive) | > 100 µM (inactive) | > 100 µM (inactive) | > 100 µM (inactive) | – | – |
| CCCCCCCCCCOC(=O)NCCC | 30.5 µM (inactive) | 18.2 µM (inactive) | 13.9 µM (inactive) | 28 µM (inactive) | 64.1 µM (inactive) | 11.6 µM (inactive) | – | 16.2 µM (inactive) | 21.6 µM (inactive) | 15.9 µM (inactive) | 29.4 µM (inactive) | 21 | 18.2 µM (inactive) | 25.9 µM (inactive) | 38.5 µM (inactive) | 28.8 µM (inactive) | 33.1 µM (inactive) | – |
| Cc1ccc(S(=O)(=O)N/N=C(\c2nc3ccc([N+](=O)[O-])cc3nc2O)C(O)c2ccccc2Cl)cc1 (stereo not drawn) | > 100 µM (inactive) | > 100 µM (inactive) | 27.5 µM (inactive) | > 100 µM (inactive) | > 100 µM (inactive) | > 100 µM (inactive) | > 100 µM (inactive) | > 100 µM (inactive) | > 100 µM (inactive) | – | 82.8 µM (inactive) | 78 | > 100 µM (inactive) | > 100 µM (inactive) | 86.9 µM (inactive) | > 100 µM (inactive) | > 100 µM (inactive) | > 100 µM (inactive) |
| O=C(CC1(O)C(=O)Nc2c(Cl)cc(Cl)cc21)c1ccc(F)cc1 (stereo not drawn) | 21.2 µM (inactive) | 24.7 µM (inactive) | – | 28.4 µM (inactive) | 28.3 µM (inactive) | 47.1 µM (inactive) | 48 µM (inactive) | 42.1 µM (inactive) | 27.8 µM (inactive) | 27 µM (inactive) | 32.7 µM (inactive) | 30.6 | 40 µM (inactive) | 68.7 µM (inactive) | 35.8 µM (inactive) | 71.6 µM (inactive) | 28.5 µM (inactive) | 33.3 µM (inactive) |
| CCOC(=O)C1S/C(=N\C(=N)N[N+](=O)[O-])N=C1C (stereo not drawn) | > 100 µM (inactive) | > 100 µM (inactive) | > 100 µM (inactive) | > 100 µM (inactive) | > 100 µM (inactive) | > 100 µM (inactive) | > 100 µM (inactive) | > 100 µM (inactive) | > 100 µM (inactive) | > 100 µM (inactive) | – | > 100 | > 100 µM (inactive) | > 100 µM (inactive) | – | > 100 µM (inactive) | > 100 µM (inactive) | > 100 µM (inactive) |
| Cc1cc(C)nc(NS(=O)(=O)c2ccc(NC(=O)c3cccc4cc5ccccc5nc34)cc2)n1 | 33 µM (inactive) | 22.9 µM (inactive) | – | 28.5 µM (inactive) | 35.5 µM (inactive) | – | 62.7 µM (inactive) | 53.8 µM (inactive) | 32.8 µM (inactive) | 23.1 µM (inactive) | 24.2 µM (inactive) | 21 | – | 69.8 µM (inactive) | 20 µM (inactive) | 31.2 µM (inactive) | 25.9 µM (inactive) | 23.2 µM (inactive) |
| O=C(N/C(=C\c1cccc([N+](=O)[O-])c1)c1nc2c3c(ccc2[nH]1)C(=O)c1ccccc1C3=O)c1ccccc1 | 36.5 µM (inactive) | – | – | 28 µM (inactive) | – | 32.4 µM (inactive) | 37.8 µM (inactive) | > 100 µM (inactive) | – | – | 45.5 µM (inactive) | 15 | – | 12.8 µM (inactive) | 55.2 µM (inactive) | 19.9 µM (inactive) | 30.3 µM (inactive) | 14 µM (inactive) |
| CC1(C)C(O)OC(O)C1(C)C (stereo not drawn) | 41.8 µM (inactive) | 46.9 µM (inactive) | 42.9 µM (inactive) | 82.2 µM (inactive) | > 100 µM (inactive) | > 100 µM (inactive) | > 100 µM (inactive) | 57.3 µM (inactive) | > 100 µM (inactive) | 32.6 µM (inactive) | 65.2 µM (inactive) | 28.1 | > 100 µM (inactive) | > 100 µM (inactive) | 91 µM (inactive) | 43.4 µM (inactive) | – | 18.1 µM (inactive) |
| O=C1C(=Cc2cccs2)C(=O)N(CCc2ccccc2)S(=O)(=O)N1CCc1ccccc1 | > 50 µM (inactive) | 28.9 µM (inactive) | 14 µM (inactive) | > 50 µM (inactive) | 9.2 µM (inactive) | > 50 µM (inactive) | – | > 50 µM (inactive) | > 50 µM (inactive) | 20.7 µM (inactive) | > 50 µM (inactive) | > 50 | > 50 µM (inactive) | > 50 µM (inactive) | > 50 µM (inactive) | > 50 µM (inactive) | > 50 µM (inactive) | > 50 µM (inactive) |
